Legend:
[1] = target: T1, human Cereblon WT GST-tagged protein (Homo sapiens, UniProt Q96SW2); experiment: CRBN-binding affinity by HTRF (CEREBLON BINDING kit); conditions: HTRF inhibitory activity, CEREBLON BINDING kit; read-out: HTRF IC50
T1 construct: purchased CISBIO 64BDCRBNPEH

GSPT1 = target: T2, GSPT1 (Homo sapiens, UniProt P15170+Q96SW2); experiment: Western-blot assay of substrate protein degradation in hPBMCs, GSPT1; assay type: cell-based; conditions: 24 hours of compound treatment, compounds tested at 50 nM and 500 nM (concentration of the table not stated)
T2 construct: endogenous in cells; host or cells: hPBMCs (Milecell Biotechnologies)
T2 sequence (P15170 whole entry): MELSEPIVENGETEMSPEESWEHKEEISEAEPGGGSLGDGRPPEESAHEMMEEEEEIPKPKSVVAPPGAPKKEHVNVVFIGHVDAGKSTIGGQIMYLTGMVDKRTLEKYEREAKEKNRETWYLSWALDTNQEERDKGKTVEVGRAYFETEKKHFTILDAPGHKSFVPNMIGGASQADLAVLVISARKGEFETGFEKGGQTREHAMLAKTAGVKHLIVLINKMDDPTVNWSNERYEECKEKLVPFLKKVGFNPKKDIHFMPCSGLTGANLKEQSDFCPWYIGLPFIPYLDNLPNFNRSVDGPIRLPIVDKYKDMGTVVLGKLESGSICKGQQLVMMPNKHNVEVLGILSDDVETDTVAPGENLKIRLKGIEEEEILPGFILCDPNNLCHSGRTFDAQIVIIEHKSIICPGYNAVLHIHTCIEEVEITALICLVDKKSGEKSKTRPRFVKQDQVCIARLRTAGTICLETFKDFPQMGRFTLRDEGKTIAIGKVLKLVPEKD
T2 sequence (Q96SW2 whole entry): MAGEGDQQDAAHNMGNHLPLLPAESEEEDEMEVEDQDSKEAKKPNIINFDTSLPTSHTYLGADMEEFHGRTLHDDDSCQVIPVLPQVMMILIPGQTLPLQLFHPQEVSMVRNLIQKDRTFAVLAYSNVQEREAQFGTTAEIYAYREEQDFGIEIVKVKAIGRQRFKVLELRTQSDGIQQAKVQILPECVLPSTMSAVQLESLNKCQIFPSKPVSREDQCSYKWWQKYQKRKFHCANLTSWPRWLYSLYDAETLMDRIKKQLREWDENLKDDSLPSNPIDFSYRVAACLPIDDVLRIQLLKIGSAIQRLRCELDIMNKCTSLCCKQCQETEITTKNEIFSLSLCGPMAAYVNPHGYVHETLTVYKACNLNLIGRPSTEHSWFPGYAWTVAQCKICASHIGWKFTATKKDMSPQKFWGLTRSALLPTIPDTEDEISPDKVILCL
T2 sequence (Q16531 whole entry partner): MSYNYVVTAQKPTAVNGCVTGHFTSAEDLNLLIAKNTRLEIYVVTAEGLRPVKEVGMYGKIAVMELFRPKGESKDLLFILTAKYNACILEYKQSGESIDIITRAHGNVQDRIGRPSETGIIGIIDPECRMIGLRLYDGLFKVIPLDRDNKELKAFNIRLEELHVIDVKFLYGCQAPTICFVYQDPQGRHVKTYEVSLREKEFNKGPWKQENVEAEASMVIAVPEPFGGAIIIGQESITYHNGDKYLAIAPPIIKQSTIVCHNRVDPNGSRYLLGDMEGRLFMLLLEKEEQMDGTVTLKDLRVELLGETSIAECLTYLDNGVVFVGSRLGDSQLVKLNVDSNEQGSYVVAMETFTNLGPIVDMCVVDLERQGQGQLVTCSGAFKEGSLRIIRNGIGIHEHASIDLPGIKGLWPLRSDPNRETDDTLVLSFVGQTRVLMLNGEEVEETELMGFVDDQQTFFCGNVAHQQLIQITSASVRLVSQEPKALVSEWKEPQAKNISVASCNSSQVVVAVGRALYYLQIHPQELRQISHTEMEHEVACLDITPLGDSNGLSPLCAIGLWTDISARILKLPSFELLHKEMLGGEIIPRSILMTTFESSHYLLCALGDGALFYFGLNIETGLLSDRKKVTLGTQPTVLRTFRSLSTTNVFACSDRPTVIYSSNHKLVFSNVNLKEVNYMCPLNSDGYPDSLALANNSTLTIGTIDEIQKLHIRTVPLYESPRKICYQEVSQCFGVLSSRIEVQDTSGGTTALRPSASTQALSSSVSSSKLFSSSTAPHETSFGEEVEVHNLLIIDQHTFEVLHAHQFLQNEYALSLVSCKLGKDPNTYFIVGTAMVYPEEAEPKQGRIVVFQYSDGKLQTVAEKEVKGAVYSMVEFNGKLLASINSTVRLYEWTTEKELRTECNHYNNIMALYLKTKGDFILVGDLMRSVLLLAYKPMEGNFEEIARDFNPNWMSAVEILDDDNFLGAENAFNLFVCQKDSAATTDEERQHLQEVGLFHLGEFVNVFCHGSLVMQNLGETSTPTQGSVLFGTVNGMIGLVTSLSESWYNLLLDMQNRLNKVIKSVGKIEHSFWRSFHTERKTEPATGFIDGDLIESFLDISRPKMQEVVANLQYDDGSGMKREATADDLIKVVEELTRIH

CK1α = target: T3, CK1α (Homo sapiens, UniProt P48729+Q96SW2); experiment: Western-blot assay of substrate protein degradation in hPBMCs, CK1α; assay type: cell-based; conditions: 24 hours of compound treatment, compounds tested at 50 nM and 500 nM (concentration of the table not stated)
T3 construct: endogenous in cells; host or cells: hPBMCs (Milecell Biotechnologies)
T3 sequence (P48729 whole entry): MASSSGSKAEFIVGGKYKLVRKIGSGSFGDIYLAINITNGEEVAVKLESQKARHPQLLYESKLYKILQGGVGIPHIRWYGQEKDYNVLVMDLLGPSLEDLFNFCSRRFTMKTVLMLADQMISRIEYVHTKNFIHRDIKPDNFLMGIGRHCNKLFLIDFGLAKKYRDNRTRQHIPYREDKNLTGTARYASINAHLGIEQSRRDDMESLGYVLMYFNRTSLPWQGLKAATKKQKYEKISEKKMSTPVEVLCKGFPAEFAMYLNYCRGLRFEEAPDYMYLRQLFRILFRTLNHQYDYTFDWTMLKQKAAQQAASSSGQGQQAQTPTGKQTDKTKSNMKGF
T3 sequence (Q96SW2 whole entry): as the sequence (Q96SW2 whole entry) above
T3 sequence (Q16531 whole entry partner): as the sequence (Q16531 whole entry partner) above

IKZF3 = target: T4, IKZF3 (Homo sapiens, UniProt Q96SW2+Q9UKT9); experiment: Western-blot assay of substrate protein degradation in hPBMCs, IKZF3; assay type: cell-based; conditions: 24 hours of compound treatment, compounds tested at 50 nM and 500 nM (concentration of the table not stated)
T4 construct: endogenous in cells; host or cells: hPBMCs (Milecell Biotechnologies)

IKZF1 = target: T5, IKZF1 (Homo sapiens, UniProt Q13422+Q96SW2); experiment: Western-blot assay of substrate protein degradation in hPBMCs, IKZF1; assay type: cell-based; conditions: 24 hours of compound treatment, compounds tested at 50 nM and 500 nM (concentration of the table not stated)
T5 construct: endogenous in cells; host or cells: hPBMCs (Milecell Biotechnologies)
T5 sequence (Q13422 whole entry): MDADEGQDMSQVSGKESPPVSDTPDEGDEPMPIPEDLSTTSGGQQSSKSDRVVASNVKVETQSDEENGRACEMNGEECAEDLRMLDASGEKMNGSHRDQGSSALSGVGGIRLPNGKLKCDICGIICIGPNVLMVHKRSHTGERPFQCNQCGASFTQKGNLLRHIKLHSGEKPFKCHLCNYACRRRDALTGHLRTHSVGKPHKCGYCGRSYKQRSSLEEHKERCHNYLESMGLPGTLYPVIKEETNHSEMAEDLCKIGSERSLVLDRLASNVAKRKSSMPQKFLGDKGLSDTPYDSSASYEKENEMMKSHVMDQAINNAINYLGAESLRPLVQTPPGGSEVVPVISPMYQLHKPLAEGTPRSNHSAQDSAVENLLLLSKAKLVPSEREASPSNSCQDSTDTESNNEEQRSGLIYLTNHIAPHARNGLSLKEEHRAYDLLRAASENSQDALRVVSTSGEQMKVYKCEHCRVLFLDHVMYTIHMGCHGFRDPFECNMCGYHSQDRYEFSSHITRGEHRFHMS
T5 sequence (Q96SW2 whole entry): as the sequence (Q96SW2 whole entry) above
T5 sequence (Q16531 whole entry partner): as the sequence (Q16531 whole entry partner) above

WEE1 = target: T6, WEE1 (Homo sapiens, UniProt P30291+Q96SW2); experiment: Western-blot assay of substrate protein degradation in hPBMCs, WEE1; assay type: cell-based; conditions: 24 hours of compound treatment, compounds tested at 50 nM and 500 nM (concentration of the table not stated)
T6 construct: endogenous in cells; host or cells: hPBMCs (Milecell Biotechnologies)
T6 sequence (P30291 whole entry): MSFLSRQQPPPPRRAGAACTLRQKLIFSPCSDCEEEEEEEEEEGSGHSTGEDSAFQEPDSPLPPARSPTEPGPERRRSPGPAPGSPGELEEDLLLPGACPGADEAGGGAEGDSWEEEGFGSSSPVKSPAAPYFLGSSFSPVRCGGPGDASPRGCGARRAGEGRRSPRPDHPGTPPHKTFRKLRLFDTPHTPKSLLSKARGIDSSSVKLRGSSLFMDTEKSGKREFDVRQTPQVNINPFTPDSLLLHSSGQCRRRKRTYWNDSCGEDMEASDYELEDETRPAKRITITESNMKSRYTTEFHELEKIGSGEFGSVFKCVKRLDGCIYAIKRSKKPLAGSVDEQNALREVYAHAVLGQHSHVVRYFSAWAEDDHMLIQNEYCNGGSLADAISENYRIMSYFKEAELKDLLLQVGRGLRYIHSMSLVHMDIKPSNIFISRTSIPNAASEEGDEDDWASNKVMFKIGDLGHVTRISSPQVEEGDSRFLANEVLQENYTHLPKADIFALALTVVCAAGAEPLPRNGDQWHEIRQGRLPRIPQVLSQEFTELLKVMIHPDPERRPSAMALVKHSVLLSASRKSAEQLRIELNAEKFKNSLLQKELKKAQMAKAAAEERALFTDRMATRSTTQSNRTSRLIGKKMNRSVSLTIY
T6 sequence (Q96SW2 whole entry): as the sequence (Q96SW2 whole entry) above
T6 sequence (Q16531 whole entry partner): as the sequence (Q16531 whole entry partner) above

IKZF2 = target: T7, IKZF2 (Homo sapiens, UniProt Q96SW2+Q9UKS7); experiment: Western-blot assay of substrate protein degradation in hPBMCs, IKZF2; assay type: cell-based; conditions: 24 hours of compound treatment, compounds tested at 50 nM and 500 nM (concentration of the table not stated)
T7 construct: endogenous in cells; host or cells: hPBMCs (Milecell Biotechnologies)
T7 sequence (Q9UKS7 whole entry): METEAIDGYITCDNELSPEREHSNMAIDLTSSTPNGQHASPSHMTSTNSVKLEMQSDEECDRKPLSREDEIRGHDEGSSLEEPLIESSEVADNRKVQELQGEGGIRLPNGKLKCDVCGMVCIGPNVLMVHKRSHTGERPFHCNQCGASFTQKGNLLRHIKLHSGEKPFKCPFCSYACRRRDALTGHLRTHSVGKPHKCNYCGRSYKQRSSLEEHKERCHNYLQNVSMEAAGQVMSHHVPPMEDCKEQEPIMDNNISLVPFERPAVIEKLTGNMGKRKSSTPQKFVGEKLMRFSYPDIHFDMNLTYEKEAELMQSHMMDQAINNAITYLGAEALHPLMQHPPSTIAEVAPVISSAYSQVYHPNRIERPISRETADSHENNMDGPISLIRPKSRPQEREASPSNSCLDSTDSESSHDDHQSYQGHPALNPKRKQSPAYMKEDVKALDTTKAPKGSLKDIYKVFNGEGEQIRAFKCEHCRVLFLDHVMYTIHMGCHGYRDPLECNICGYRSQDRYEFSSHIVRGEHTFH
T7 sequence (Q96SW2 whole entry): as the sequence (Q96SW2 whole entry) above
T7 sequence (Q16531 whole entry partner): as the sequence (Q16531 whole entry partner) above

T1 sequence (Q96SW2 whole entry): as the sequence (Q96SW2 whole entry) above

Row | Structure (SMILES) | IC50 [1] [µM] | GSPT1 substrate protein remaining % (GSPT1) | CK1a substrate protein remaining % (CK1α) | IKZF3 substrate protein remaining % (IKZF3) | IKZF 1 substrate protein remaining % (IKZF1) | Weel substrate protein remaining % (WEE1) | IKZF2 substrate protein remaining % (IKZF2)
1 | O=C1CCC(N2Cc3cc(CN4CCN(c5nccc(F)c5F)CC4)ccc3C2=O)C(=O)N1 (stereo not shown) [GT-04579, 3-(5-((4-(3,4-difluoropyridin-2-yl)piperazin-1-yl)methyl)-1-oxoisoindolin-2-yl)piperidine-2,6-dione] | 1.5 to 1.9 | B (80%< substrate protein remaining %≤ 100%) | A (0% ≤ substrate protein remaining % ≤ 80%) | B (80%< substrate protein remaining %≤ 100%) | B (80%< substrate protein remaining %≤ 100%) | B (80%< substrate protein remaining %≤ 100%) | B (80%< substrate protein remaining %≤ 100%)
2 | O=C1CCC(N2Cc3cc(CN4CCN(c5ccncc5Br)CC4)ccc3C2=O)C(=O)N1 (stereo not shown) [GT-04580, 3-(5-((4-(3-bromopyridin-4-yl)piperazin-1-yl)methyl)-1-oxoisoindolin-2-yl)piperidine-2,6-dione] | 0.5 to 1 | B (80%< substrate protein remaining %≤ 100%) | A (0% ≤ substrate protein remaining % ≤ 80%) | A (0% ≤ substrate protein remaining % ≤ 80%) | A (0% ≤ substrate protein remaining % ≤ 80%) | A (0% ≤ substrate protein remaining % ≤ 80%) | A (0% ≤ substrate protein remaining % ≤ 80%)
3 | O=C1CCC(N2Cc3cc(CN4CCN(c5ccncc5F)CC4)ccc3C2=O)C(=O)N1 (stereo not shown) [GT-04581, 3-(5-((4-(3-fluoropyridin-4-yl)piperazin-1-yl)methyl)-1-oxoisoindolin-2-yl)piperidine-2,6-dione] | 1 to 1.5 | B (80%< substrate protein remaining %≤ 100%) | B (80%< substrate protein remaining %≤ 100%) | A (0% ≤ substrate protein remaining % ≤ 80%) | B (80%< substrate protein remaining %≤ 100%) | B (80%< substrate protein remaining %≤ 100%) | A (0% ≤ substrate protein remaining % ≤ 80%)
4 | O=C1CCC(N2Cc3cc(CN4CCC(c5ccoc5)CC4)ccc3C2=O)C(=O)N1 (stereo not shown) [GT-04590, 3-(5-((4-(furan-3-yl)piperidin-1-yl)methyl)-1-oxoisoindolin-2-yl)piperidine-2,6-dione] | 1 to 1.5 | A (0% ≤ substrate protein remaining % ≤ 80%) | B (80%< substrate protein remaining %≤ 100%) | B (80%< substrate protein remaining %≤ 100%) | B (80%< substrate protein remaining %≤ 100%) | B (80%< substrate protein remaining %≤ 100%) | A (0% ≤ substrate protein remaining % ≤ 80%)
5 | O=C1CCC(N2Cc3cc(CN4CCCC(C5CCNCC5)C4)ccc3C2=O)C(=O)N1 (stereo not shown) [GT-04591, 3-(5-([3,4'-bipiperidin]-1-ylmethyl)-1-oxoisoindolin-2-yl)piperidine-2,6-dione] | 1.5 to 1.9 | A (0% ≤ substrate protein remaining % ≤ 80%) | A (0% ≤ substrate protein remaining % ≤ 80%) | B (80%< substrate protein remaining %≤ 100%) | B (80%< substrate protein remaining %≤ 100%) | B (80%< substrate protein remaining %≤ 100%) | B (80%< substrate protein remaining %≤ 100%)
6 | O=C1CCC(N2Cc3cc(CN4CCN(c5c(Cl)cncc5Br)CC4)ccc3C2=O)C(=O)N1 (stereo not shown) [GT-04600, 3-(5-((4-(3-bromo-5-chloropyridin-4-yl)piperazin-1-yl)methyl)-1-oxoisoindolin-2-yl)piperidine-2,6-dione] | 0.5 to 1 | A (0% ≤ substrate protein remaining % ≤ 80%) | B (80%< substrate protein remaining %≤ 100%) | A (0% ≤ substrate protein remaining % ≤ 80%) | A (0% ≤ substrate protein remaining % ≤ 80%) | A (0% ≤ substrate protein remaining % ≤ 80%) | A (0% ≤ substrate protein remaining % ≤ 80%)
7 | O=C1CCC(N2Cc3cc(CN4CCN(c5c(F)cncc5Cl)CC4)ccc3C2=O)C(=O)N1 (stereo not shown) [GT-04611, 3-(5-((4-(3-chloro-5-fluoropyridin-4-yl)piperazin-1-yl)methyl)-1-oxoisoindolin-2-yl)piperidine-2,6-dione] | 0.5 to 1 | A (0% ≤ substrate protein remaining % ≤ 80%) | B (80%< substrate protein remaining %≤ 100%) | B (80%< substrate protein remaining %≤ 100%) | B (80%< substrate protein remaining %≤ 100%) | A (0% ≤ substrate protein remaining % ≤ 80%) | B (80%< substrate protein remaining %≤ 100%)
8 | O=C1CCC(N2Cc3cc(CN4CCN(c5ccnc(Cl)c5F)CC4)ccc3C2=O)C(=O)N1 (stereo not shown) [GT-04612, 3-(5-((4-(2-chloro-3-fluoropyridin-4-yl)piperazin-1-yl)methyl)-1-oxoisoindolin-2-yl)piperidine-2,6-dione] | 0.5 to 1 | A (0% ≤ substrate protein remaining % ≤ 80%) | B (80%< substrate protein remaining %≤ 100%) | B (80%< substrate protein remaining %≤ 100%) | B (80%< substrate protein remaining %≤ 100%) | A (0% ≤ substrate protein remaining % ≤ 80%) | B (80%< substrate protein remaining %≤ 100%)
9 | O=C1CCC(N2Cc3cc(CN4CCN(c5c(Cl)cccc5Cl)CC4)ccc3C2=O)C(=O)N1 (stereo not shown) [GT-04613, 3-(5-((4-(2,6-dichlorophenyl)piperazin-1-yl)methyl)-1-oxoisoindolin-2-yl)piperidine-2,6-dione] | 1 to 1.5 | A (0% ≤ substrate protein remaining % ≤ 80%) | B (80%< substrate protein remaining %≤ 100%) | B (80%< substrate protein remaining %≤ 100%) | B (80%< substrate protein remaining %≤ 100%) | A (0% ≤ substrate protein remaining % ≤ 80%) | B (80%< substrate protein remaining %≤ 100%)
10 | O=C1CCC(N2Cc3cc(CN4CCN(c5ccnc(Cl)c5Br)CC4)ccc3C2=O)C(=O)N1 (stereo not shown) [GT-04616, 3-(5-((4-(3-bromo-2-chloropyridin-4-yl)piperazin-1-yl)methyl)-1-oxoisoindolin-2-yl)piperidine-2,6-dione] | < 0.5 | A (0% ≤ substrate protein remaining % ≤ 80%) | B (80%< substrate protein remaining %≤ 100%) | B (80%< substrate protein remaining %≤ 100%) | B (80%< substrate protein remaining %≤ 100%) | B (80%< substrate protein remaining %≤ 100%) | B (80%< substrate protein remaining %≤ 100%)
11 | O=C1CCC(N2Cc3cc(CN4CCC(c5ccnc6cc(F)ccc56)CC4)ccc3C2=O)C(=O)N1 (stereo not shown) [GT-04648, 3-(5-((4-(7-fluoroquinolin-4-yl)piperidin-1-yl)methyl)-1-oxoisoindolin-2-yl)piperidine-2,6-dione] | 0.5 to 1 | A (0% ≤ substrate protein remaining % ≤ 80%) | B (80%< substrate protein remaining %≤ 100%) | A (0% ≤ substrate protein remaining % ≤ 80%) | A (0% ≤ substrate protein remaining % ≤ 80%) | B (80%< substrate protein remaining %≤ 100%) | A (0% ≤ substrate protein remaining % ≤ 80%)
12 | O=C1CCC(N2Cc3cc(CN4CCC(=C5CCOc6cc(F)ccc65)CC4)ccc3C2=O)C(=O)N1 (stereo not shown) [GT-04649, 3-(5-((4-(7-fluorochroman-4-ylidene)piperidin-1-yl)methyl)-1-oxoisoindolin-2-yl)piperidine-2,6-dione] | < 0.5 | A (0% ≤ substrate protein remaining % ≤ 80%) | B (80%< substrate protein remaining %≤ 100%) | A (0% ≤ substrate protein remaining % ≤ 80%) | A (0% ≤ substrate protein remaining % ≤ 80%) | B (80%< substrate protein remaining %≤ 100%) | A (0% ≤ substrate protein remaining % ≤ 80%)
13 | O=C1CCC(N2Cc3cc(CN4CCC(c5cccc6cnccc56)CC4)ccc3C2=O)C(=O)N1 (stereo not shown) [GT-04665, 3-(5-((4-(isoquinolin-5-yl)piperidin-1-yl)methyl)-1-oxoisoindolin-2-yl)piperidine-2,6-dione] | < 0.5 | A (0% ≤ substrate protein remaining % ≤ 80%) | A (0% ≤ substrate protein remaining % ≤ 80%) | A (0% ≤ substrate protein remaining % ≤ 80%) | A (0% ≤ substrate protein remaining % ≤ 80%) | A (0% ≤ substrate protein remaining % ≤ 80%) | A (0% ≤ substrate protein remaining % ≤ 80%)
